Source: patent US9296720B2, “Carboxamide-substituted heteroaryl-pyrazoles and the use thereof” (AiCuris GmbH & Co. KG, priority 2011, dated 2016)

What was measured:
[1] = test system: HIV-1NL4-3 Wild Type; assay: Luminescence reduction assay, MT4 cells infected with HIV-1NL4-3 luciferase reporter virus, wild type; assay type: cell-based; conditions: Human immunodeficiency virus 1, MT4, MT4 cells, 2% FCS
In short: (§1)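 Compound dilution series in 1% DMSO, with 2% or 10% FCS, incubated 5 days at 37° C/5% CO2 with MT4 cells previously pellet-infected (2 h) by luciferase reporter NL4-3 virus, wild type or carrying RT resistance mutations. EC50 taken where luminescence from secreted luciferase falls to 50% of untreated infected control.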

[2] = test system: HIV-1NL4-3 K103N-Y181C; assay: Luminescence reduction assay, MT4 cells infected with HIV-1NL4-3 luciferase reporter virus, RT mutant K103N-Y181C; assay type: cell-based; conditions: Human immunodeficiency virus 1, MT4, read-out: EC50 (μM) MT4 Cells HIV-1NL4-3 K103N-Y181C 2% FCS, MT4 cells, HIV-1NL4-3 K103N-Y181C, 2% FCS
In short: as §1

[3] = test system: HIV-1LAI Wild Type; assay: AlamarBlue viability assay, HIV-1LAI-infected MT4 cells; assay type: cell-based; conditions: Human immunodeficiency virus 1, MT4, MT4 cells, 10% FCS
In short: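 MT4 cells infected with HIV-1LAI (MOI 0.01, supernatant infection) cultured 5 days at 37 °C with compounds in RPMI with 2% or 10% FCS, 1% DMSO final. AlamarBlue fluorescence after 3 h; EC50 as 50% protection relative to uninfected cells, CC50 from high-concentration cytotoxicity.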

[4] = biological target: T1, reverse transcriptase (Human immunodeficiency virus type 1 group M subtype B, UniProt P04585); assay: Biochemical reverse transcriptase assay (Reverse Transcriptase Assay, colorimetric, Roche); conditions: colorimetric RT assay, DMSO 1%
T1 construct: negative control (batch without reverse transcriptase); purchased Roche Diagnostics GmbH, Mannheim, Germany
Description: The “Reverse Transcriptase Assay, colorimetric” (Roche Diagnostics GmbH, Mannheim, Germany) is used according to manufacturers' instructions. The test substances are dissolved in DMSO and used in diluted form in the test in the five steps (DMSO final concentration: 1%). The resulting values of the photometric analysis (405/492 nm) are smaller than 0.1 in the negative control (batch without reverse transcriptase) and are in the range of 1.5 in the positive control (batch without test substance). The IC50 values of the test substances are determined as the concentration of the test substance dilution, in which the measured optical density is 50% of the positive control.

Compound | EC50 [1] | EC50 [2] | EC50 [3] | IC50 [4]
O=C1CN(C(=O)c2cc(-c3cc(Br)cc(OC(F)(F)F)c3)n(-c3ccnc(Cl)c3)n2)CCN1 [Example 49, 4-({5-[3-Bromo-5-(trifluoromethoxy)phenyl]-1-(2-chloropyridin-4-yl)-1H-pyrazol-3-yl}carbonyl)piperazin-2-one] | 0.008 µM | 0.038 µM | 0.23 µM | 758 nM
O=C(c1cc(-c2cc(Cl)cc(OC(F)F)c2)n(-c2cccnc2)n1)N1CCS(=O)(=O)C1 [Example 83, {5-[3-Chloro-5-(difluoromethoxy)phenyl]-1-(pyridin-3-yl)-1H-pyrazol-3-yl}(1,1-dioxido-1,3-thiazolidin-3-yl)methanone] | 0.008 µM | 0.168 µM | 0.089 µM | 65 nM
